Assay results reported in ChEMBL document CHEMBL3046640, “Synthesis and antimicrobial activity of bischalcone derivatives” (2013).
Converted amounts (≈) assume the structure as drawn. The source made the active and inactive calls. The rule behind the calls is not given here.

Tests used:
Assay type in all cases: functional
Rhizopus arrhizus [1] = experiment: Antifungal activity against Rhizopus oryzae MTCC 262 assessed as growth inhibition at 100 ug/mL after 3 to 4 days by agar diffusion method; conditions: read-out: DIZ
Aspergillus niger [2] = experiment: Antifungal activity against Aspergillus niger ATCC 16404 assessed as growth inhibition at 100 ug/mL after 3 to 4 days by agar diffusion method; conditions: read-out: DIZ
Candida albicans [3] = experiment: Antifungal activity against Candida albicans ATCC 10231 assessed as growth inhibition at 100 ug/mL after 3 to 4 days by agar diffusion method; conditions: read-out: DIZ
Pseudomonas aeruginosa [4] = experiment: Antibacterial activity against Pseudomonas aeruginosa ATCC 27853 assessed as growth inhibition at 100 ug/mL after 24 hr by cup-plate method; conditions: ATCC 27853, 24 h, read-out: DIZ
Escherichia coli [5] = experiment: Antibacterial activity against Escherichia coli ATCC 25922 assessed as growth inhibition at 100 ug/mL after 24 hr by cup-plate method; conditions: ATCC 25922, 24 h, read-out: DIZ
Staphylococcus aureus [6] = experiment: Antibacterial activity against Staphylococcus aureus ATCC 25923 assessed as growth inhibition at 100 ug/mL after 24 hr by cup-plate method; conditions: ATCC 25923, 24 h, read-out: DIZ
Rhizopus arrhizus [7] = experiment: Antifungal activity against Rhizopus oryzae MTCC 262 assessed as growth inhibition after 48 hr by broth dilution method
Aspergillus niger [8] = experiment: Antifungal activity against Aspergillus niger ATCC 16404 assessed as growth inhibition after 48 hr by broth dilution method
Candida albicans [9] = experiment: Antifungal activity against Candida albicans ATCC 10231 assessed as growth inhibition after 48 hr by broth dilution method
Pseudomonas aeruginosa [10] = experiment: Antibacterial activity against Pseudomonas aeruginosa ATCC 27853 assessed as growth inhibition after 24 hr by broth dilution method
Escherichia coli [11] = experiment: Antibacterial activity against Escherichia coli ATCC 25922 assessed as growth inhibition after 24 hr by broth dilution method
Staphylococcus aureus [12] = experiment: Antibacterial activity against Staphylococcus aureus ATCC 25923 assessed as growth inhibition after 24 hr by broth dilution method

Structure (SMILES)	zone of inhibition at 100 µg/mL (Rhizopus arrhizus [1]) [mm]	zone of inhibition at 100 µg/mL (Aspergillus niger [2]) [mm]	zone of inhibition at 100 µg/mL (Candida albicans [3]) [mm]	zone of inhibition at 100 µg/mL (Pseudomonas aeruginosa [4]) [mm]	zone of inhibition at 100 µg/mL (Escherichia coli [5]) [mm]	zone of inhibition at 100 µg/mL (Staphylococcus aureus [6]) [mm]	MIC (Rhizopus arrhizus [7])	MIC (Aspergillus niger [8])	MIC (Candida albicans [9]; ATCC 10231, 48 h) [µg/mL]	MIC (Pseudomonas aeruginosa [10]; ATCC 27853, 24 h) [µg/mL]	MIC (Escherichia coli [11])	MIC (Staphylococcus aureus [12]; ATCC 25923, 24 h) [µg/mL]	MIC (Candida albicans [9])	MIC (Pseudomonas aeruginosa [10])	MIC (Rhizopus arrhizus [7]; MTCC 262, 48 h) [µg/mL]	MIC (Aspergillus niger [8]; ATCC 16404, 48 h) [µg/mL]	MIC (Escherichia coli [11]; ATCC 25922, 24 h) [µg/mL]	MIC (Staphylococcus aureus [12])
Cc1ccccc1/C=C/C(=O)c1cc(C(=O)/C=C/c2ccccc2C)c(O)cc1O	< 5	< 5	5	5	< 5	5	inactive	inactive	> 100	> 100	inactive	> 100						
CC(=O)c1cc(C(C)=O)c(OC(=O)c2cccc(Cl)c2)cc1OC(=O)c1cccc(Cl)c1	< 5	< 5	< 5	< 5	< 5	5	inactive	inactive			inactive	> 100	inactive	inactive				
COc1cccc(/C=C/C(=O)c2cc(C(=O)/C=C/c3cccc(OC)c3)c(O)cc2O)c1	15	10	15	10	10	10			25 (≈ 58.1 µM)	50 (≈ 116 µM)		50 (≈ 116 µM)			25 (≈ 58.1 µM)	50 (≈ 116 µM)	50 (≈ 116 µM)	
CC(=O)c1cc(C(C)=O)c(OC(=O)c2ccccc2[N+](=O)[O-])cc1OC(=O)c1ccccc1[N+](=O)[O-]	< 5	< 5	< 5	< 5	5	10	inactive	inactive				50 (≈ 102 µM)	inactive	inactive			> 100	
O=C(/C=C/c1ccco1)c1cc(C(=O)/C=C/c2ccco2)c(O)cc1O	10	15	15	15	15	15			12.5 (≈ 35.7 µM)	12.5 (≈ 35.7 µM)		25 (≈ 71.4 µM)			50 (≈ 143 µM)	25 (≈ 71.4 µM)	12.5 (≈ 35.7 µM)	
CCN(CC)c1ccc(/C=C/C(=O)c2cc(C(=O)/C=C/c3ccc(N(CC)CC)cc3)c(O)cc2O)cc1	5	5	10	5	10	10			50 (≈ 97.5 µM)	> 100		50 (≈ 97.5 µM)			> 100	> 100	50 (≈ 97.5 µM)	
COc1cc(-c2cc(=O)c3cc4c(=O)cc(-c5cc(OC)c(OC)c(OC)c5)oc4cc3o2)cc(OC)c1OC	10	10	10	5	10	5			50 (≈ 91.5 µM)	> 100		> 100			50 (≈ 91.5 µM)	50 (≈ 91.5 µM)	50 (≈ 91.5 µM)	
CN(C)c1ccc(/C=C/C(=O)c2cc(C(=O)/C=C/c3ccc(N(C)C)cc3)c(O)cc2O)cc1	10	5	10	10	15	10			50 (≈ 110 µM)	50 (≈ 110 µM)		50 (≈ 110 µM)			50 (≈ 110 µM)	> 100	25 (≈ 54.8 µM)	
CC(=O)c1cc(C(C)=O)c(OC(=O)c2ccc(Cl)cc2)cc1OC(=O)c1ccc(Cl)cc1	5	< 5	5	< 5	5	5		inactive	> 100			> 100		inactive	> 100		> 100	
CC(=O)c1cc(C(C)=O)c(OC(=O)c2ccccc2C)cc1OC(=O)c1ccccc1C	< 5	< 5	< 5	< 5	< 5	< 5	inactive	inactive			inactive		inactive	inactive				inactive
COc1cccc(-c2cc(=O)c3cc4c(=O)cc(-c5cccc(OC)c5)oc4cc3o2)c1	15	15	15	10	5	10			25 (≈ 58.6 µM)	50 (≈ 117 µM)		50 (≈ 117 µM)			25 (≈ 58.6 µM)	25 (≈ 58.6 µM)	> 100	
O=C(/C=C/c1cccc(Cl)c1)c1cc(C(=O)/C=C/c2cccc(Cl)c2)c(O)cc1O	10	5	10	10	< 5	5			50 (≈ 114 µM)	50 (≈ 114 µM)	inactive	> 100			50 (≈ 114 µM)	> 100		
